Where two headings read alike, the source gives them in different places.
Assays:
[1] = test system: A549 (Lung Adenocarcinoma); assay: Cell viability analysis, lung cancer A549; assay type: cell-based, human
[2] = test system: MKN-45 (Gastric Adenocarcinoma); assay: Cell viability analysis, gastric cancer MKN-45; assay type: cell-based, human
[3] = test system: SAS (Tongue squamous cell carcinoma); assay: Cell viability analysis, tongue cancer SAS; assay type: cell-based, human
[4] = test system: MDA-MB-231 (Mammary Gland, Adenocarcinoma); assay: Cell viability analysis, breast cancer MDA-MB-231; assay type: cell-based, human
[5] = test system: AGS (Gastric Adenocarcinoma); assay: Cell viability analysis, gastric cancer AGS; assay type: cell-based, human
TOV-21G = assay: Cell viability analysis, ovarian cancer TOV-21G; assay type: cell-based, human
[6] = test system: PC3 (p53−) (Prostate Adenocarcinoma); assay: Cell viability analysis, prostate cancer PC3; assay type: cell-based, human
NIH: OVCAR-3 = assay: Cell viability analysis, ovarian cancer NIH: OVCAR-3; assay type: cell-based, human
[7] = test system: LoVo (Colorectal Adenocarcinoma); assay: Cell viability analysis, colon cancer LoVo; assay type: cell-based, human
[8] = test system: HeLa (Cervix Adenocarcinoma); assay: Cell viability analysis, cervical cancer HeLa; assay type: cell-based, human
[9] = test system: HCT116 (p53+) (Colorectal Carcinoma)
[10] = test system: TSGH-8301 (Urinary Bladder Carcinoma); assay: Cell viability analysis, bladder cancer TSGH-8301; assay type: cell-based, human
AsPC-1 = assay: Cell viability analysis, pancreatic cancer AsPC-1; assay type: cell-based, human
U-2OS = assay: Cell viability analysis, osteosarcoma U-2OS; assay type: cell-based, human
[11] = test system: Hep3B (hepatocellular carcinoma); assay: Cell viability analysis, hepatic cancer Hep3B; assay type: cell-based, human
BxPC-3 = assay: Cell viability analysis, pancreatic cancer BxPC-3; assay type: cell-based, human
[12] = test system: 786-O (Renal adenocarcinoma); assay: Cell viability analysis, renal cancer 786-O; assay type: cell-based, human
T24 = assay: Cell viability analysis, bladder cancer T24; assay type: cell-based, human
[13] = test system: C-33A (Cervical carcinoma); assay: Cell viability analysis, cervical cancer C-33A; assay type: cell-based, human
[14] = test system: HepG2 (Hepatocellular Carcinoma); assay: Cell viability analysis, hepatic cancer HepG2; assay type: cell-based, human
[15] = test system: MCF7 (Mammary Gland, Adenocarcinoma); assay: Cell viability analysis, breast cancer MCF7; assay type: cell-based, human
[16] = test system: A375 (Amelanotic Melanoma); assay: Cell viability analysis, skin cancer A375; assay type: cell-based, human
[17] = test system: HI650 (Lung Adenocarcinoma); assay: Cell viability analysis, lung cancer HI650; assay type: cell-based, human
[18] = test system: BCC (basal cell carcinoma); assay: Cell viability analysis, skin cancer BCC; assay type: cell-based, human
[19] = NIH-OVCAR-3, repeated experiment

COC(=O)Nc1nc2cc(C(=O)c3ccc(F)cc3)ccc2[nH]1 [Flubendazole (Flutelmium)]
The results of antibiotic drug inhibiting cancer cell lines (cell viability analysis), A549 ([1]; A549, repeated experiment): 22.71 | The results of antibiotic drug inhibiting cancer cell lines (cell viability analysis), MKN-45 [2]: 63.06 | The results of antibiotic drug inhibiting cancer cell lines (cell viability analysis), SAS ([3]; SAS, repeated experiment): 45.16 | The results of antibiotic drug inhibiting cancer cell lines (cell viability analysis), MDA-MB231 ([4]; MDA-MB231, repeated experiment): 43.43 | The results of antibiotic drug inhibiting cancer cell lines (cell viability analysis), AGS ([5]; AGS, repeated experiment): 28.25 | The results of antibiotic drug inhibiting cancer cell lines (cell viability analysis), TOV-21G (TOV-21G; TOV-21G, repeated experiment): 24.84 | The results of antibiotic drug inhibiting cancer cell lines (cell viability analysis), PC-3 [6]: 32.11 | The results of antibiotic drug inhibiting cancer cell lines (cell viability analysis), NIH-OVCAR-3 (NIH: OVCAR-3; [19]): 59.15 | The results of antibiotic drug inhibiting cancer cell lines (cell viability analysis), LoVo ([7]; LoVo, repeated experiment): 53.35 | The results of antibiotic drug inhibiting cancer cell lines (cell viability analysis), HeLa ([8]; HeLa, repeated experiment): 25.78 | The results of antibiotic drug inhibiting cancer cell lines (cell viability analysis), HCT116 [9]: 20.63 | The results of antibiotic drug inhibiting cancer cell lines (cell viability analysis), TSGH-8301 ([10]; TSGH-8301, repeated experiment): 45.64 | The results of antibiotic drug inhibiting cancer cell lines (cell viability analysis), AsPC-1 (AsPC-1; AsPC-1, repeated experiment): 35.53 | The results of antibiotic drug inhibiting cancer cell lines (cell viability analysis), U2OS (U-2OS; U2OS, repeated experiment): 48.74 | The results of antibiotic drug inhibiting cancer cell lines (cell viability analysis), Hep3B ([11]; Hep3B, repeated experiment): 56.93 | The results of antibiotic drug inhibiting cancer cell lines (cell viability analysis), BxPC-3 (BxPC-3; BxPC-3, repeated experiment): 32.76 | The results of antibiotic drug inhibiting cancer cell lines (cell viability analysis), 786-O ([12]; 786-O, repeated experiment): 20.97 | The results of antibiotic drug inhibiting cancer cell lines (cell viability analysis), T24 (T24; T24, repeated experiment): 34.67 | The results of antibiotic drug inhibiting cancer cell lines (cell viability analysis), C-33A ([13]; C-33A, repeated experiment): 46.4 | The results of antibiotic drug inhibiting cancer cell lines (cell viability analysis), HepG2 ([14]; HepG2, repeated experiment): 56.8 | The results of antibiotic drug inhibiting cancer cell lines (cell viability analysis), MCF-7 ([15]; MCF-7, repeated experiment): 55.01 | The results of antibiotic drug inhibiting cancer cell lines (cell viability analysis), A375 ([16]; A375, repeated experiment): 30.32 | The results of antibiotic drug inhibiting cancer cell lines (cell viability analysis), H1650 ([17]; H1650, repeated experiment): 35.69 | The results of antibiotic drug inhibiting cancer cell lines (cell viability analysis), BCC ([18]; BCC, repeated experiment): 31.79

CC[C@H](C)[C@H]1O[C@]2(CC[C@@H]1C)C[C@@H]1C[C@@H](C/C=C(\C)[C@@H](O[C@H]3C[C@H](OC)[C@@H](O[C@H]4C[C@H](OC)[C@@H](O)[C@H](C)O4)[C@H](C)O3)[C@@H](C)/C=C/C=C3\CO[C@@H]4[C@H](O)C(C)=C[C@@H](C(=O)O1)[C@]34O)O2 [Ivermectin]
The results of antibiotic drug inhibiting cancer cell lines (cell viability analysis), A549 ([1]; A549, repeated experiment): 33.35 | The results of antibiotic drug inhibiting cancer cell lines (cell viability analysis), MKN-45 ([2]; MKN-45, repeated experiment): 102.1 | The results of antibiotic drug inhibiting cancer cell lines (cell viability analysis), SAS ([3]; SAS, repeated experiment): 41.52 | The results of antibiotic drug inhibiting cancer cell lines (cell viability analysis), MDA-MB231 ([4]; MDA-MB231, repeated experiment): 83.03 | The results of antibiotic drug inhibiting cancer cell lines (cell viability analysis), AGS ([5]; AGS, repeated experiment): 79.82 | The results of antibiotic drug inhibiting cancer cell lines (cell viability analysis), TOV-21G (TOV-21G; TOV-21G, repeated experiment): 42.41 | The results of antibiotic drug inhibiting cancer cell lines (cell viability analysis), PC-3 ([6]; PC-3, repeated experiment): 27.87 | The results of antibiotic drug inhibiting cancer cell lines (cell viability analysis), NIH-OVCAR-3 (NIH: OVCAR-3; [19]): 61.85 | The results of antibiotic drug inhibiting cancer cell lines (cell viability analysis), LoVo ([7]; LoVo, repeated experiment): 53.26 | The results of antibiotic drug inhibiting cancer cell lines (cell viability analysis), HeLa ([8]; HeLa, repeated experiment): 58.86 | viability [9]: 62.7% | The results of antibiotic drug inhibiting cancer cell lines (cell viability analysis), TSGH-8301 ([10]; TSGH-8301, repeated experiment): 63.74 | The results of antibiotic drug inhibiting cancer cell lines (cell viability analysis), AsPC-1 (AsPC-1; AsPC-1, repeated experiment): 41.75 | The results of antibiotic drug inhibiting cancer cell lines (cell viability analysis), U2OS (U-2OS; U2OS, repeated experiment): 50.69 | The results of antibiotic drug inhibiting cancer cell lines (cell viability analysis), Hep3B ([11]; Hep3B, repeated experiment): 63.22 | The results of antibiotic drug inhibiting cancer cell lines (cell viability analysis), BxPC-3 (BxPC-3; BxPC-3, repeated experiment): 65.76 | The results of antibiotic drug inhibiting cancer cell lines (cell viability analysis), 786-O ([12]; 786-O, repeated experiment): 55.69 | The results of antibiotic drug inhibiting cancer cell lines (cell viability analysis), T24 (T24; T24, repeated experiment): 101.7 | The results of antibiotic drug inhibiting cancer cell lines (cell viability analysis), C-33A ([13]; C-33A, repeated experiment): 85.05 | The results of antibiotic drug inhibiting cancer cell lines (cell viability analysis), HepG2 ([14]; HepG2, repeated experiment): 65.3 | The results of antibiotic drug inhibiting cancer cell lines (cell viability analysis), MCF-7 ([15]; MCF-7, repeated experiment): 48.13 | The results of antibiotic drug inhibiting cancer cell lines (cell viability analysis), A375 ([16]; A375, repeated experiment): 44.36 | The results of antibiotic drug inhibiting cancer cell lines (cell viability analysis), H1650 ([17]; H1650, repeated experiment): 50.2 | The results of antibiotic drug inhibiting cancer cell lines (cell viability analysis), BCC ([18]; BCC, repeated experiment): 33.64

Cl.c1ccc([C@H]2CN3CCSC3=N2)cc1 [Levamisole Hydrochloride (Ergamisol)]
The results of antibiotic drug inhibiting cancer cell lines (cell viability analysis), A549 [1]: 104.9 | The results of antibiotic drug inhibiting cancer cell lines (cell viability analysis), MKN-45 [2]: 112.3 | The results of antibiotic drug inhibiting cancer cell lines (cell viability analysis), SAS [3]: 89.56 | The results of antibiotic drug inhibiting cancer cell lines (cell viability analysis), MDA-MB231 [4]: 102.7 | The results of antibiotic drug inhibiting cancer cell lines (cell viability analysis), AGS [5]: 120.5 | The results of antibiotic drug inhibiting cancer cell lines (cell viability analysis), TOV-21G (TOV-21G): 83.45 | The results of antibiotic drug inhibiting cancer cell lines (cell viability analysis), PC-3 [6]: 125.7 | The results of antibiotic drug inhibiting cancer cell lines (cell viability analysis), NIH-OVCAR-3 (NIH: OVCAR-3): 105.6 | The results of antibiotic drug inhibiting cancer cell lines (cell viability analysis), LoVo [7]: 100.7 | The results of antibiotic drug inhibiting cancer cell lines (cell viability analysis), HeLa [8]: 137 | viability [9]: 116% | The results of antibiotic drug inhibiting cancer cell lines (cell viability analysis), TSGH-8301 [10]: 106.8 | The results of antibiotic drug inhibiting cancer cell lines (cell viability analysis), AsPC-1 (AsPC-1): 85.72 | The results of antibiotic drug inhibiting cancer cell lines (cell viability analysis), U2OS (U-2OS): 79.87 | The results of antibiotic drug inhibiting cancer cell lines (cell viability analysis), Hep3B [11]: 121.1 | The results of antibiotic drug inhibiting cancer cell lines (cell viability analysis), BxPC-3 (BxPC-3): 68.02 | The results of antibiotic drug inhibiting cancer cell lines (cell viability analysis), 786-O [12]: 93.24 | The results of antibiotic drug inhibiting cancer cell lines (cell viability analysis), T24 (T24): 92.87 | The results of antibiotic drug inhibiting cancer cell lines (cell viability analysis), C-33A [13]: 96.19 | The results of antibiotic drug inhibiting cancer cell lines (cell viability analysis), HepG2 [14]: 127.7 | The results of antibiotic drug inhibiting cancer cell lines (cell viability analysis), MCF-7 [15]: 102.4 | The results of antibiotic drug inhibiting cancer cell lines (cell viability analysis), A375 [16]: 113.9 | The results of antibiotic drug inhibiting cancer cell lines (cell viability analysis), H1650 [17]: 78.34 | The results of antibiotic drug inhibiting cancer cell lines (cell viability analysis), BCC [18]: 114.1

O=C(Nc1ccc([N+](=O)[O-])cc1Cl)c1cc(Cl)ccc1O [Niclosamide (Niclocide)]
The results of antibiotic drug inhibiting cancer cell lines (cell viability analysis), A549 [1]: 16.68 | The results of antibiotic drug inhibiting cancer cell lines (cell viability analysis), MKN-45 [2]: 50.74 | The results of antibiotic drug inhibiting cancer cell lines (cell viability analysis), SAS [3]: 23.94 | The results of antibiotic drug inhibiting cancer cell lines (cell viability analysis), MDA-MB231 [4]: 37.69 | The results of antibiotic drug inhibiting cancer cell lines (cell viability analysis), AGS [5]: 23.05 | The results of antibiotic drug inhibiting cancer cell lines (cell viability analysis), TOV-21G (TOV-21G): 17.59 | The results of antibiotic drug inhibiting cancer cell lines (cell viability analysis), PC-3 [6]: 42.84 | The results of antibiotic drug inhibiting cancer cell lines (cell viability analysis), NIH-OVCAR-3 (NIH: OVCAR-3): 54.68 | The results of antibiotic drug inhibiting cancer cell lines (cell viability analysis), LoVo [7]: 41.95 | The results of antibiotic drug inhibiting cancer cell lines (cell viability analysis), HeLa [8]: 25.4 | viability [9]: 23.9% | The results of antibiotic drug inhibiting cancer cell lines (cell viability analysis), TSGH-8301 [10]: 35.94 | The results of antibiotic drug inhibiting cancer cell lines (cell viability analysis), AsPC-1 (AsPC-1): 40.72 | The results of antibiotic drug inhibiting cancer cell lines (cell viability analysis), U2OS (U-2OS): 26.74 | The results of antibiotic drug inhibiting cancer cell lines (cell viability analysis), Hep3B [11]: 60.79 | The results of antibiotic drug inhibiting cancer cell lines (cell viability analysis), BxPC-3 (BxPC-3): 41.93 | The results of antibiotic drug inhibiting cancer cell lines (cell viability analysis), 786-O [12]: 25.52 | The results of antibiotic drug inhibiting cancer cell lines (cell viability analysis), T24 (T24): 26.49 | The results of antibiotic drug inhibiting cancer cell lines (cell viability analysis), C-33A [13]: 39.49 | The results of antibiotic drug inhibiting cancer cell lines (cell viability analysis), HepG2 [14]: 37.55 | The results of antibiotic drug inhibiting cancer cell lines (cell viability analysis), MCF-7 [15]: 33.36 | The results of antibiotic drug inhibiting cancer cell lines (cell viability analysis), A375 [16]: 20.26 | The results of antibiotic drug inhibiting cancer cell lines (cell viability analysis), H1650 [17]: 36.77 | The results of antibiotic drug inhibiting cancer cell lines (cell viability analysis), BCC [18]: 30.66
